Assay results published in US5116863A, “Dibenz[b,e]oxepin derivative and pharmaceutical compositions thereof” (Kyowa Hakko Kogyo Co., Ltd., priority 1986, dated 1992).
Like-named read-outs stand apart in the source and are kept apart here.

What was measured:
[1] = tested on: dd, male mice; type: in vivo
Experimental: Groups each consisting of 3 dd, male mice having body weights of 20±1 g were used, and the compound of the present invention was administered orally (po: 300 mg/kg) or intraperitoneally (ip: 100 mg/kg).

[2] = tested on: Rat carageenin paw edema; test: Carageenin paw edema test (antiinflammatory activity); type: in vivo, Wistar male rats; conditions: average value in one group of 3 rats, 100 mg/kg oral administration
Experimental: Antiinflammatory activity was examined according to Rat carageenin paw edema [J. Pathol. 104, 15-29 (1971)], Groups each consisting of three Wistar male rats weighing 150 g were used. The test compound was suspended in 0.3% aqueous CMC solution and the suspension was given orally. Sixty minutes later, 0.1 ml of 0.1% carageenin was subcutaneously injected in a hind paw to form carageenin paw edema.
The volume of paw was measured before the administration and 3 hours after the administration of carageenin with plethysmometer.
The ratio of the volume 3 hours after the administration to that before the administration of carageenin was calculated and each ratio is compared with the ratio of control group (0.3% CMC was administered) to give the edema inhibiting percentage.

[3] = tested on: homologous PCA (passive cutaneous anaphlaxis) of rats; test: Homologous PCA (passive cutaneous anaphylaxis) test of rats for 48 hours, oral (antiallergic activity); type: in vivo, Wistar male rats; conditions: for minimal effective dose / MED (minimum effective dosage), PCA inhibition: minimum dosage with positive case in at least one of three rats; for minimal effective dose: read-out: MED (minimum effective dosage), PCA inhibition; for responders at 1 mg/kg / responders at 10 mg/kg / responders at 100 mg/kg / responders at 0.1 mg/kg / responders at 0.01 mg/kg: read-out: Number of positive zooids in one group of 3 zooids (converted)
Experimental: Antiallergic activity was investigated by a homologous PCA (passive cutaneous anaphlaxis) of rats for 48 hours, where Wistar male rats having body weights of 180 to 220 g were used for sampling of antiserum and Wistar male rats having body weights of 120 to 140 g were used for the PCA test.
Anti-egg white albumin (EWA) rat serum was prepared according to Stotland and Share's method [Canad. J. Physiol. Pharmacol. 52, 1114 (1974)]. That is, 1 mg of EWA was mixed with 20 mg of aluminum hydroxide gel and 0.5 ml of mixed vaccine of pertussis, diphtheria and tetanus, and the mixture was subcutaneously administered in four portions into rat's footpad. After 14 days, blood was sampled from the carotid artery, and the serum was separated from the sampled blood, and preserved under freezing at -80° C. The potency of the antiserumin in the homologous PCA for 48 hours was 1:32.
Groups each consisting of 3 rats were used, and 0.05 ml of anti-EWA rat serum diluted with a physiological saline solution to 8 times as much was incutaneously injected each at two positions of depilated back to make the animals passively sensitised. After 47 hours, the compound of the present invention, or its solution (physiological saline solution or CMC solution) was orally administered. One hour thereafter, 0.5 ml/100 g of 1% Evan's blue physiological saline solution containing 2 mg of the antigen EWA was administered into the tail vein, and 30 minutes thereafter, the animals were sacrificed by exsanguination. Then, the skins were stripped and the amount of leaked pigment at the blue-dyed parts was measured according to the Katayama et al method [Microbiol. Immunol. 22, 89 (1978)]. That is, the blue-dyed parts were cut out by scissors, and placed in test tubes containing 1 ml of 1N KOH and incubated at 37° C. for 24 hours. Then, 9 ml of a mixture of 0.6N phosphoric acid and acetone (5:13) was added thereto, and the mixture was shaked and centrifuged at 2,500 rpm for 10 minutes. Absorbancy of the supernatant at […] was measured, and the amount of leaked pigment was quantitatively determined by the calibration curve prepared in advance. An average of measurements at the two position was made a value for one zooid, and inhibition rate for the individual zooid was calculated by the following formula: [formula]

[4] = mice, mortality 7 days after administration
[5] = Rattus norvegicus, po, dosage 1 mg/kg, positive = inhibition rate 50% or higher
[6] = Rattus norvegicus, po, dosage 10 mg/kg, positive = inhibition rate 50% or higher
[7] = Rattus norvegicus, po, dosage 100 mg/kg, positive = inhibition rate 50% or higher
[8] = Rattus norvegicus, po, dosage 0.1 mg/kg, positive = inhibition rate 50% or higher
[9] = dosage 0.1 mg/kg, positive = inhibition rate 50% or higher
[10] = dosage 1 mg/kg, positive = inhibition rate 50% or higher
[11] = Rattus norvegicus, po, dosage 0.01 mg/kg, positive = inhibition rate 50% or higher

Row | SMILES | Acute toxicity (MLD), ip [1, 4] | Acute toxicity (MLD), po [1, 4] | Carageenin paw edema inhibiting percentage [2] | minimal effective dose ([3]; Rattus norvegicus) | responders at 1 mg/kg [3, 5] | responders at 10 mg/kg [3, 6] | responders at 100 mg/kg [3, 7] | responders at 0.1 mg/kg [3, 8] | responders at 0.001 mg/kg ([3]; Rattus norvegicus, po, dosage 0.001 mg/kg, positive = inhibition rate 50% or higher, read-out: Number of positive zooids in one group of 3 zooids) | Number of positive zooids in one group of 3 zooids ([3]; dosage 0.01 mg/kg, positive = inhibition rate 50% or higher) | Number of positive zooids in one group of 3 zooids [3, 9] | Number of positive zooids in one group of 3 zooids [3, 10] | Number of positive zooids in one group of 3 zooids ([3]; dosage 10 mg/kg, positive = inhibition rate 50% or higher) | Number of positive zooids in one group of 3 zooids ([3]; dosage 100 mg/kg, positive = inhibition rate 50% or higher) | MED (minimum effective dosage), PCA inhibition [3] | responders at 0.01 mg/kg [3, 11] | Acute toxicity (MLD), ip ([1]; mouse, in vivo, 10080 min) | Acute toxicity (MLD), po ([1]; mouse, in vivo, 10080 min)
1 | CN(C)CCN=C1c2ccccc2COc2ccc(CC(=O)O)cc21 [Compound 37, 11-(2-Dimethylaminoethyl)imino-6,11-dihydrodibenz[b,e]oxepin-2-acetic acid] | > 100 mg/kg | > 300 mg/kg | 51.6% | 10 mg/kg | 0% | 100% | 100% |  |  |  |  |  |  |  |  |  |  | 
2 | CN(C)CCN=C1c2ccccc2COc2cc(CC(=O)O)ccc21 [Compound 47, 11-(2-Dimethylaminoethyl)imino-6,11-dihydrodibenz[b,e]oxepin-3-acetic acid] |  |  | 46.0% |  |  |  |  |  |  |  |  |  |  |  |  |  |  | 
3 | CCN(CC)CCN=C1c2ccccc2COc2ccc(CC(=O)O)cc21 [Compound 39, 11-(2-Diethylaminoethyl)imino-6,11-dihydrodibenz[b,e]oxepin-2-acetic acid] | > 100 mg/kg | > 300 mg/kg | 50.2% | 1 mg/kg | 100% | 66.7% | 100% | 0% |  |  |  |  |  |  |  |  |  | 
4 | CN(C)CCCN=C1c2ccccc2COc2ccc(CC(=O)O)cc21 [Compound 41, 11-(3-Dimethylaminopropyl)imino-6,11-dihydrodibenz[b,e]oxepin-2-acetic acid] | > 100 mg/kg | > 300 mg/kg | 38.7% | 1 mg/kg | 33.3% | 66.7% | 100% | 0% |  |  |  |  |  |  |  |  |  | 
5 | CN(C)CC/C=C1\c2ccccc2COc2ccc(CC(=O)O)cc21 [Compound 20 (trans), Trans-11-(3-dimethylaminopropylidene)-6,11-dihydrodibenz[b,e]oxepin-2-acetic acid] | > 100 mg/kg | > 300 mg/kg |  |  |  |  |  |  | 0% | 0/3 | 3/3 | 3/3 | 2/3 | 2/3 | 0.1 mg/kg |  |  | 
6 | CN(C)CCCC=C1c2ccccc2COc2ccc(C(=O)O)cc21 [Compound 9, 11-(4-Dimethylaminobutylidene)-6,11-dihydrodibenz[b,e]oxepin-2-carboxylic acid] | > 100 mg/kg | > 300 mg/kg |  | 1 mg/kg | 66.7% | 100% | 100% | 0% |  |  |  |  |  |  |  | 0% |  | 
7 | O=C(O)c1ccc2c(c1)C(=CCCN1CCOCC1)c1ccccc1CO2 [Compound 56, 11-(3-Morpholinopropylidene)-6,11-dihydrodibenz[b,e]-oxepin-2-carboxylic acid] | > 100 mg/kg | > 300 mg/kg |  | 0.1 mg/kg | 100% | 100% | 100% | 33.3% |  |  |  |  |  |  |  | 0% |  | 
8 | CN(C)CC/C=C1/c2ccccc2COc2ccc(C(=O)O)cc21 [Compound 3 (cis), Cis-11-(3-dimethylaminopropylidene)-6,11-dihydrodibenz[b,e]oxepin-2-carboxylic acid] | > 100 mg/kg | > 300 mg/kg |  | 0.1 mg/kg | 100% | 100% | 100% | 100% |  |  |  |  |  |  |  | 0% |  | 
9 | O=C(O)c1ccc2c(c1)C(=CCCN1CCCC1)c1ccccc1CO2 [Compound 7, 11-(3-Pyrrolidinopropylidene)-6,11-dihydrodibenz[b,e]oxepin-2-carboxylic acid] | > 100 mg/kg | > 300 mg/kg |  | 1 mg/kg | 33.3% | 66.7% | 100% | 0% |  |  |  |  |  |  |  |  |  | 
10 | CN1CCN(C/C=C2\c3ccccc3COc3ccc(C(=O)O)cc32)CC1 [Compound 11, 11-[2-(4-Methylpiperazino)ethylidene]-6,11-dihydrodibenz[b,e]oxepin-2-carboxylic acid] |  |  |  | 10 mg/kg | 0% | 33.3% | 66.7% | 0% |  |  |  |  |  |  |  |  | > 100 mg/kg | > 300 mg/kg
11 | CC(C(=O)O)c1ccc2c(c1)C(=NCCN(C)C)c1ccccc1CO2 (stereo not shown) [Compound 45, 2-[11-(2-Dimethylaminoethyl)imino-6,11-dihydrodibenz[b,e]oxepin-2-yl]-propionic acid] | > 100 mg/kg | > 300 mg/kg | 63.1% | 1 mg/kg | 66.7% | 100% | 100% | 0% |  |  |  |  |  |  |  |  |  | 
12 | CN(C)CC/C=C1/c2ccccc2COc2ccc(/C=C/C(=O)O)cc21 [Compound 60, Trans-3-[11-(3-dimethylaminopropylidene)-6,11-dihydrodibenz[b,e]oxepin-2-yl]-acrylic acid] | > 100 mg/kg | > 300 mg/kg |  | 0.1 mg/kg | 66.7% | 100% | 100% | 33.3% |  |  |  |  |  |  |  | 0% |  | 
13 | CN(C)CC/C=C1\c2ccccc2COc2ccc(CCO)cc21 [Compound 31 (trans), Trans-11-(3-dimethylaminopropylidene)-2-(2-hydroxyethyl)-6,11-dihydrodibenz[b,e]oxepin] | > 100 mg/kg | > 300 mg/kg |  |  |  |  |  |  |  |  | 3/3 | 2/3 |  |  | 0.1 mg/kg |  |  | 
14 | CCN(CC)CC/C=C1/c2ccccc2COc2ccc(C(=O)O)cc21 [Compound 5, 11-(3-Diethylaminopropylidene)-6,11-dihydrodibenz[b,e]oxepin-2-carboxylic acid] |  |  |  | 1 mg/kg | 100% | 100% | 100% |  |  |  |  |  |  |  |  | 0% | > 100 mg/kg | > 300 mg/kg
15 | CN(C)CCCN=C1c2ccccc2COc2cc(CC(=O)O)ccc21 [Compound 49, 11-(3-Dimethylaminopropyl)imino-6,11-dihydrodibenz[b,e]oxepin-3-acetic acid] |  |  | 24.1% |  |  |  |  |  |  |  |  |  |  |  |  |  |  | 
